Experimental data from patent US9624161B2 (priority 2009, dated 2017).
Where “and” joins values, the source holds several entries; their conditions need not be identical. Equal values may be shown once.

Columns and labels:
[1] = tested on: men with metastatic castration resistant prostate cancer (mCRPC); experiment: Study 6: secondary hormone therapy with Compound IV 125 mg, 250 mg or 500 mg in mCRPC/nmCRPC maintained on ADT; assay type: in vivo, human
Text: Compound IV, is studied (Study 6) for the proposed indication secondary hormone therapy for metastatic castration resistant prostate cancer (mCRPC), for high risk non-metastatic castration resistant prostate cancer (nmCRPC) or advanced prostate cancer at high risk of progressing to CRPC, or any combination thereof.
The effect of Compound IV as secondary hormonal therapy that reduces serum PSA and serum free testosterone levels in men with metastatic castration resistant prostate cancer maintained on androgen deprivation therapy is studied. The study assesses the effects of Compound IV on serum PSA response and serum PSA progression in men with mCRPC on ADT with LHRH agonists, LHRH antagonists, or orchidectomy. This study also assesses the VTE risk of lower doses of Compound IV. Secondary endpoints include serum free testosterone levels, adrenal gland androgen precursor production (DHEA and DHEAS levels), progression free survival, and skeletal related events (SRE).
75 subjects with castration resistant prostate cancer patients with radiographic evidence of metastatic disease (T any-N any-M1) are enrolled in the study. These subjects have a median life expectancy of less than 20 months, i.e. more serious disease than the other subjects with advanced prostate cancer enrolled in the previous studies. All subjects have been previously treated with androgen deprivation therapy (ADT), have responded to the ADT and currently have a serum PSA >2 ng/mL or >2 ng/mL and representing a 25% increase above the nadir achieved on the ADT. Subjects are maintained on ADT throughout the study.
Each subject receives daily doses of 125 mg Compound IV, 250 mg Compound IV, or 500 mg Compound IV administered orally, until their serum PSA increases at least 25% and 2 ng/mL from the nadir at two successive serum PSA assessments after initiation of treatment with Compound IV.
Enrollment into this study is staggered by 1 cycle (30 days) such that the first 25 subjects are enrolled into the 125 mg Compound IV dose arm. These subjects are evaluated for incidence of venous thromboembolic events (VTE). When the last subject in the 125 mg Compound IV dose arm has completed 1 cycle of therapy (30 days) in this dose arm and there is an acceptable incidence rate of VTE in this dose arm at that time (less than 3), enrollment is commenced in the 250 mg Compound IV dose arm. These subjects are evaluated for the incidence of VTE. When all 25 subjects in the 250 mg Compound IV dose arm have completed 1 cycle of therapy (30 days) in this dose arm and there is an acceptable incidence rate of VTE in this dose arm at that time (less than 3), enrollment into the 500 mg Compound IV dose arm (25 subjects) is commenced.
125 mg Compound IV, 250 mg Compound IV, or 500 mg Compound IV will be administered daily to all subjects in the study until they have developed serum PSA progression (serum PSA has increased at least 25% and 2 ng/mL above the nadir at two successive sample times after initiation of treatment with Compound IV).
Assessments of serum total testosterone, serum free testosterone, serum SHGB and serum PSA concentrations are made on Days 15, 30, and every 30 days until their serum PSA has increased at least 25% and 2 ng/mL from the nadir at two successive sample times after initiation of treatment with Compound IV. Bone turnover markers are assessed at baseline (Day 1), Day 90, and End of Study.
The incidence and frequency of hot flashes is assessed at baseline (Day 1), Day 30, Day 60, Day 90 and End of Study.
The proportion of subjects with a 50% decline from baseline in serum PSA (confirmed by a second serum PSA assessment 30 days later) by Day 90 (with follow up confirmation by Day 120) […]

[2] = tested on: liver X receptor (LXR); experiment: Nuclear receptor cross-reactivity transcriptional activation assay; assay type: cell-based, human; settings: agonist and antagonist modes
Text: Compound IV was screened for cross-reactivity against rat isoforms of glucocorticoid receptor (GR), mineralocorticoids receptor (MR), progesterone receptor (PR), androgen receptor (AR) and human isoforms of farnesoid X receptor (FXR), liver X receptor (LXR), peroxisome proliferator-activated receptors (PPAR-α and PPAR-γ), and retinoid X receptor (RXR-α) in both agonist and antagonist modes in transcriptional activation assays.

[3] = 250 mg, 11 evaluable patients (FIG. 61)
[4] = Study 6, 125 mg, 20 evaluable patients
[5] = Study 6, 125 mg, 21 evaluable patients
[6] = Study 6, 125 mg, mCRPC on ADT, Day 90, N 20
[7] = Study 6, 125 mg, mCRPC on ADT, N 20
[8] = Study 6, 125 mg, patients with hot flashes at baseline
[9] = Study 6, 125 mg, patients with no hot flashes at baseline

What does the source list for `O=C(c1ccc(O)c(F)c1)N(c1ccc(O)cc1)c1ccc(F)cc1` [Compound IV, 3-fluoro-N-(4-fluorophenyl)-4-hydroxy-N-(4-hydroxyphenyl)benzamide]?
Deep vein thrombosis events (DVTs) ([1]; 125 mg): No deep vein thrombosis events (DVTs) have been reported; Evaluable patients with improvements in hot flash frequency or severity ([1]; 125 mg): 33%; Evaluable patients with reductions in CTX ([1]; 125 mg): 60%; Evaluable patients with reductions in bone specific alkaline phosphatase ([1]; 125 mg): 52%; Men that do not respond and have continually increasing PSA levels ([1]; 125 mg): 6; Patients reporting a PSA decrease in response to therapy ([1]; 125 mg): 24 patients; Patients with maximum free T reductions greater than 50% from baseline ([1]; 125 mg): 24 of 30; Patients with reductions in free T ([1]; 125 mg): 27 of 30; SAEs or VTEs ([1]; 125 mg): no SAEs or VTEs; Subjects with decreased collagen C-telopeptide (CTX) ([1]; 125 mg): 69%; Subjects with ≧50% decrease in PSA level ([1]; 125 mg): 11%; Patients with free T >0.7 pg/ml (Day 1) that go to <0.7 pg/mL ([1]; 125 mg cohort): 22/25; Patients with total T >20 ng/dL (Day 1) that do NOT go to <20 ng/dL ([1]; 125 mg cohort): 0/3; Patients with total T >20 ng/dL (Day 1) that go to <20 ng/dL ([1]; 125 mg cohort): 3/3; Patients with improvement in both frequency and severity of hot flashes ([1]; 125 mg, 18 evaluable patients): 22%; Patients with improvement of frequency or severity and stability of the other measurement ([1]; 125 mg, 18 evaluable patients): 11%; Patients with stability in frequency and severity of hot flashes ([1]; 125 mg, 18 evaluable patients): 50%; Patients with worsening of either frequency or severity of hot flashes ([1]; 125 mg, 18 evaluable patients): 17%; SHBG level relative to Day 0 in all treated men ([1]; 125 mg, at least 90 days, initial 15 patients): ≥ 150 % of Day 0; Men with suboptimal castration (free T>0.7 pg/ml) that became optimally castrated ([1]; 125 mg, by day 90, initial 15 patients): 91%; Treated men with improvement and stability of bone turnover markers ([1]; 125 mg, initial group, 11 evaluable subjects): at least 73%; Patients with >45% decrease in PSA ([1]; 125 mg, prior to day 90, initial 15 patients): 4/15 and 4; Subjects with any level of PSA decline ([1]; 250 mg): 85%; Subjects with decreased collagen C-telopeptide (CTX) ([1]; 250 mg): 81%; Subjects with ≧50% decrease in PSA level ([1]; 250 mg): 30%; Patients with free T >0.7 pg/ml (Day 1) that go to <0.7 pg/mL ([1]; 250 mg cohort): 9/10; Patients with total T >20 ng/dL (Day 1) that do NOT go to <20 ng/dL ([1]; 250 mg cohort): 0/4; Patients with total T >20 ng/dL (Day 1) that go to <20 ng/dL ([1]; 250 mg cohort): 4/4; Reported drug related serious adverse events (SAE) ([1]; 250 mg daily): one; Subjects that reported adverse events (AE's) ([1]; 250 mg daily): seven; Median SHBG level ([1]; 250 mg daily, initial 20 patients, 90 days): 297 % of baseline; SAE possibly drug related ([1]; 250 mg daily, patient required hospitalization): Phlebothrombosis-Grade 3; Patients stable in both hot flash measurements [1, 3]: 45%; Patients with improvement in both/either frequency and severity of hot flashes [1, 3]: 36%; Bone turnover (CTX) decreased (improved), share of subjects ([1]; Study 6, 125 mg cohort): 69% are decreased; SHBG, median (of baseline) ([1]; Study 6, 125 mg cohort): Median - 158%; PSA response: subjects with ≧50% decrease in PSA ([1]; Study 6, 125 mg cohort, 4/38): 4/38 ≧ 50% (11%); Hot flashes improved, in men experiencing them on Day 1 ([1]; Study 6, 125 mg cohort, 7/24): 7/24 improved (29%); Hot flashes stable, in men experiencing them on Day 1 ([1]; Study 6, 125 mg cohort, 12/24): 12/24 stable (50%); CTx decreased, # of patients (%) [1, 4]: 12/20 (60%); CTx increased, # of patients (%) [1, 4]: 5/20 (25%); CTx unchanged, # of patients (%) [1, 4]: 3/20 (15%); BSAP decreased, # of patients (%) [1, 5]: 11/21 (52%); BSAP increased, # of patients (%) [1, 5]: 8/21 (38%); BSAP unchanged, # of patients (%) [1, 5]: 2/21 (10%); Adverse event frequency (%): Bone pain ([1]; Study 6, 125 mg, 34 subjects): 3 (9%); Adverse event frequency (%): Gynecomastia (grade 2) ([1]; Study 6, 125 mg, 34 subjects): 4 (12%); Adverse event frequency (%): Gynecomastia/breast tenderness (grade 1) ([1]; Study 6, 125 mg, 34 subjects): 4 (12%); Adverse event frequency (%): Loss of appetite ([1]; Study 6, 125 mg, 34 subjects): 3 (9%); Adverse event frequency (%): Nausea ([1]; Study 6, 125 mg, 34 subjects): 2 (6%); Adverse event frequency: VTE ([1]; Study 6, 125 mg, 34 subjects): 0; Free testosterone level, mean [1, 6]: 0.57 pg/mL; Free testosterone level, median [1, 6]: 0.45 pg/mL; Free testosterone, % change from baseline to Day 90, median [1, 7]: −57.14%; Free testosterone, change from baseline to Day 90, median [1, 7]: -0.50 pg/mL; Free testosterone, change from baseline to Day 90, mean ([1]; Study 6, 125 mg, mCRPC on ADT, N 20, P 0.0002): -0.74 pg/mL; Free testosterone, % change from baseline to Day 90, mean ([1]; Study 6, 125 mg, mCRPC on ADT, N 20, P 0.0035): −34.59%; Change in hot flashes (frequency, severity): (Better, Better), % of patients [1, 8]: 18.75%; Change in hot flashes (frequency, severity): (Better, Stable), % of patients [1, 8]: 18.75%; Change in hot flashes (frequency, severity): (Better, Worse), % of patients [1, 8]: 6.25%; Change in hot flashes (frequency, severity): (Stable, Stable), % of patients [1, 8]: 37.50%; Change in hot flashes (frequency, severity): (Stable, Worse), % of patients [1, 8]: 6.25%; Change in hot flashes (frequency, severity): (Worse, Worse), % of patients [1, 8]: 12.50%; Change in hot flashes (frequency, severity): (Stable, Stable), % of patients [1, 9]: 77.78%; Change in hot flashes (frequency, severity): (Worse, Worse), % of patients [1, 9]: 22.22%; SHBG, mean (of baseline) ([1]; Study 6, 250 mg cohort): Mean - 294%; SHBG, median (of baseline) ([1]; Study 6, 250 mg cohort): Median - 297%; Hot flashes improved, in men experiencing them on Day 1 ([1]; Study 6, 250 mg cohort, 4/11): 4/11 improved (36%); Hot flashes stable, in men experiencing them on Day 1 ([1]; Study 6, 250 mg cohort, 5/11): 5/11 stable (45%); PSA response: subjects with ≧50% decrease in PSA ([1]; Study 6, 250 mg cohort, 6/20, Day 90): 6/20 ≧ 50% (30%); Bone turnover (CTX) decreased (improved), share of subjects ([1]; Study 6, 250 mg cohort, 13/16): 13/16 (81%) are; Reported adverse event: Bilateral Breast Tenderness, grade ([1]; Study 6, 250 mg daily): Grade 1; Reported adverse event: Diarrhea, grade ([1]; Study 6, 250 mg daily): Grade 1; Reported adverse event: Gynecomastia, grade ([1]; Study 6, 250 mg daily): Grade 2; Reported adverse event: Nipple Pain, grade ([1]; Study 6, 250 mg daily): Grade 1; Reported adverse event: Nipple Tenderness, grade ([1]; Study 6, 250 mg daily): Grade 1; Reported adverse event: Sensitivity of Mammila, grade ([1]; Study 6, 250 mg daily): Grade 1; Agonist or antagonist activity at LXR [2]: did not display any agonist or antagonist activity
